Measured values: US20070128217A1 (priority 2003, published 2007)

Assays:
[1] = test system: control sera (pooled serum of ten healthy LUMC hospital workers; commercial negative donor pooled serum from the Dutch bloodbank); assay type: binding, human; design: Binding of Control serum LUMC to linear peptides / Binding of Control serum Blood-bank to linear peptides / Binding of Control serum LUMC to looped peptides / Binding of Control Serum Blood-Bank to Looped peptides / Binding of Control serum LUMC to linear peptides of the protein M of SARS-CoV Urbani / Binding of Control serum Blood-bank to linear peptides of the protein M of SARS-CoV Urbani / Binding of Control serum LUMC to looped peptides of the protein M of SARS-CoV Urbani / Binding of Control Serum Blood-Bank to Looped peptides of the protein M of SARS-CoV Urbani: unit not given here
[2] = test system: rabbit serum obtained by immunizing a rabbit with the SARS-CoV strain Frankfurt 1; assay type: binding; design: Binding of a rabbit serum to linear peptides / Binding of a rabbit serum to looped peptides / Rabbit serum linear peptides / Rabbit serum looped peptides / Binding of a rabbit serum to linear peptides of protein N of SARS-CoV Urbani (Rabbit serum linear peptides) / Binding of a rabbit serum to looped/cyclic peptides of protein N of SARS-CoV Urbani (Rabbit serum looped peptides): unit not given here
[3] = test system: antibodies in sera from SARS patients (sera 1a, 1b, 2, 6, 37, 62, London, SARS-yellow, SARS-green); assay type: binding, human; design: Binding of serum 6 to linear peptides of protein X1 of SARS-CoV Urbani / Binding of serum 37 to linear peptides of protein X1 of SARS-CoV Urbani / Binding of serum 6 to looped/cyclic peptide (PEPSCAN-ELISA) / Binding of serum 37 to looped/cyclic peptide (PEPSCAN-ELISA) / Binding of serum 37 to looped/cyclic peptides of protein X1 of SARS-CoV Urbani / Binding of serum 6 to linear peptides of protein X2 / Binding of serum 37 to linear peptides of protein X2 / Binding of serum 37 to looped/cyclic peptides of protein X2 of SARS-CoV Urbani / Binding of serum 6 to linear peptides of protein M of SARS-CoV Urbani / Binding of serum 37 to linear peptides of protein M of SARS-CoV Urbani / Binding of serum 6 to looped/cyclic peptides of protein M of SARS-CoV Urbani / Binding of serum 37 to looped/cyclic peptides of protein M of SARS-CoV Urbani / Binding of serum 6 to linear peptides of protein X3 of SARS-CoV Urbani / Binding of serum 37 to linear peptides of protein X3 of SARS-CoV Urbani / Binding of serum 37 to looped/cyclic peptides of protein X3 of SARS-CoV Urbani / Binding of serum 6 to linear peptides of protein X4 of SARS-CoV Urbani / Binding of serum 37 to linear peptides of protein X4 of SARS-CoV Urbani / Binding of serum 37 to looped/cyclic peptides of protein X4 of SARS-CoV Urbani / Binding of serum 6 to linear peptides of protein X5 of SARS-CoV Urbani / Binding of serum 37 to linear peptides of protein X5 of SARS-CoV Urbani / Binding of serum 37 to looped/cyclic peptides of protein X5 of SARS-CoV Urbani / Binding of serum 6 to linear peptides of protein N of SARS-CoV Urbani / Binding of serum 37 to linear peptides of protein N of SARS-CoV Urbani / Binding of serum 6 to linear peptide (PEPSCAN-ELISA) / Binding of serum 1a to looped/cyclic peptides of protein N of SARS-CoV Urbani / Binding of serum 1b to looped/cyclic peptides of protein N of SARS-CoV Urbani / Binding of serum 2 to looped/cyclic peptides of protein N of SARS-CoV Urbani / Binding of serum 6 to looped/cyclic peptides of protein N of SARS-CoV Urbani / Binding of serum 37 to looped/cyclic peptides of protein N of SARS-CoV Urbani / Binding of serum 62 to looped/cyclic peptides of protein N of SARS-CoV Urbani / Binding of serum London to looped/cyclic peptides of protein N of SARS-CoV Urbani / Binding of serum SARS-green to looped/cyclic peptides of protein N of SARS-CoV Urbani: unit not given here

Row | Sequence | Binding of Control Serum Blood-Bank to Looped peptides [1] | Binding of Control serum Blood-bank to linear peptides [1] | Binding of Control serum LUMC to linear peptides [1] | Binding of Control serum LUMC to looped peptides [1] | Rabbit serum linear peptides [2] | Rabbit serum looped peptides [2] | Binding of serum 1a to linear peptides of protein X5 of SARS-CoV Urbani [3] | Binding of serum 1a to looped/cyclic peptides of protein X5 of SARS-CoV Urbani [3] | Binding of serum 1b to linear peptides of protein X5 of SARS-CoV Urbani [3] | Binding of serum 1b to looped/cyclic peptides of protein X5 of SARS-CoV Urbani [3] | Binding of serum 2 to linear peptides of protein X5 of SARS-CoV Urbani [3] | Binding of serum 2 to looped/cyclic peptides of protein X5 of SARS-CoV Urbani [3] | Binding of serum 6 to linear peptides of protein X5 of SARS-CoV Urbani [3] | Binding of serum 6 to looped/cyclic peptides of protein X5 of SARS-CoV Urbani [3] | Binding of serum 37 to linear peptides of protein X5 of SARS-CoV Urbani [3] | Binding of serum 37 to looped/cyclic peptides of protein X5 of SARS-CoV Urbani [3] | Binding of serum 62 to linear peptides of protein X5 of SARS-CoV Urbani [3] | Binding of serum 62 to looped/cyclic peptides of protein X5 of SARS-CoV Urbani [3] | Binding of serum London to linear peptides of protein X5 of SARS-CoV Urbani [3] | Binding of serum London to looped/cyclic peptides of protein X5 of SARS-CoV Urbani [3] | further results
1 | TAAFRDVLVVLNKRT | 0.8 | 0.7 | 0.8 | 0.6 | 0.3 | 0.4 | 0.5 | 0.7 | 0.6 | 0.6 | 0.6 | 0.7 | 0.6 | 0.9 | 0.5 | 0.6 | 0.5 | 0.6 | 0.5 | 1.1 | Binding of serum SARS-green to linear peptides of protein X5 of SARS-CoV Urbani [3]: 0.2; Binding of serum SARS-green to looped/cyclic peptides of protein X5 of SARS-CoV Urbani [3]: 0.5; Binding of serum SARS-yellow to linear peptides of protein X5 of SARS-CoV Urbani [3]: 0.7; Binding of serum SARS-yellow to looped/cyclic peptides of protein X5 of SARS-CoV Urbani [3]: 0.5
2 | TAFQHQNSKKTTKLV | 0.4 | 0.6 | 0.9 | 0.4 | – | – | – | – | – | – | – | – | – | – | – | – | – | – | – | – | Recognition of the peptide by the rabbit serum [2]: recognized; Binding of serum 1a to linear peptides of protein X2 [3]: 0.7; Binding of serum 1a to looped/cyclic peptides of protein X2 of SARS-CoV Urbani [3]: 0.3; Binding of serum 1b to linear peptides of protein X2 [3]: 0.5; Binding of serum 1b to looped/cyclic peptides of protein X2 of SARS-CoV Urbani [3]: 0.3; Binding of serum 2 to linear peptides of protein X2 [3]: 0.5; Binding of serum 2 to looped/cyclic peptides of protein X2 of SARS-CoV Urbani [3]: 0.2; Binding of serum 6 to linear peptides of protein X2 [3]: 0.7; Binding of serum 6 to looped/cyclic peptides of protein X2 of SARS-CoV Urbani [3]: 0.3; Binding of serum 37 to linear peptides of protein X2 [3]: 0.7; Binding of serum 37 to looped/cyclic peptides of protein X2 of SARS-CoV Urbani [3]: 0.2; Binding of serum 62 to linear peptides of protein X2 [3]: 0.4; Binding of serum 62 to looped/cyclic peptides of protein X2 of SARS-CoV Urbani [3]: 0.4; Binding of serum London to linear peptides of protein X2 [3]: 0.4; Binding of serum London to looped/cyclic peptides of protein X2 of SARS-CoV Urbani [3]: 0.2; Binding of serum SARS-green to linear peptides of protein X2 [3]: 0.1; Binding of serum SARS-green to looped/cyclic peptides of protein X2 of SARS-CoV Urbani [3]: 0.1; Binding of serum SARS-yellow to linear peptides of protein X2 [3]: 0.8; Binding of serum SARS-yellow to looped/cyclic peptides of protein X2 of SARS-CoV Urbani [3]: 0.3
3 | TALQELLIQQWIQFM | 0.7 | 0.7 | 0.4 | 0.7 | – | – | – | – | – | – | – | – | – | – | – | – | – | – | – | – | Binding of a rabbit serum to linear peptides [2]: 0.4; Binding of a rabbit serum to looped peptides [2]: 0.4; Binding of serum 1a to linear peptides of protein X2 [3]: 0.8; Binding of serum 1a to looped/cyclic peptides of protein X2 of SARS-CoV Urbani [3]: 0.7; Binding of serum 1b to linear peptides of protein X2 [3]: 0.6; Binding of serum 1b to looped/cyclic peptides of protein X2 of SARS-CoV Urbani [3]: 0.5; Binding of serum 2 to linear peptides of protein X2 [3]: 0.3; Binding of serum 2 to looped/cyclic peptides of protein X2 of SARS-CoV Urbani [3]: 0.4; Binding of serum 6 to linear peptides of protein X2 [3]: 0.2; Binding of serum 6 to looped/cyclic peptides of protein X2 of SARS-CoV Urbani [3]: 0.3; Binding of serum 37 to linear peptides of protein X2 [3]: 0.5; Binding of serum 37 to looped/cyclic peptides of protein X2 of SARS-CoV Urbani [3]: 0.5; Binding of serum 62 to linear peptides of protein X2 [3]: 0.5; Binding of serum 62 to looped/cyclic peptides of protein X2 of SARS-CoV Urbani [3]: 0.7; Binding of serum London to linear peptides of protein X2 [3]: 0.4; Binding of serum London to looped/cyclic peptides of protein X2 of SARS-CoV Urbani [3]: 0.2; Binding of serum SARS-green to linear peptides of protein X2 [3]: 0.5; Binding of serum SARS-green to looped/cyclic peptides of protein X2 of SARS-CoV Urbani [3]: 0.5; Binding of serum SARS-yellow to linear peptides of protein X2 [3]: 0.4; Binding of serum SARS-yellow to looped/cyclic peptides of protein X2 of SARS-CoV Urbani [3]: 0.5
4 | TAWLCALGKVLPFHR | 0.4 | 0.7 | 0.4 | 0.6 | 0.7 | 0.8 | 0.7 | 0.4 | 0.5 | 0.3 | 0.6 | 0.6 | 0.5 | 0.9 | 0.7 | 0.4 | 0.7 | 0.7 | 0.6 | 1.3 | Binding of serum SARS-green to linear peptides of protein X5 of SARS-CoV Urbani [3]: 0.7; Binding of serum SARS-green to looped/cyclic peptides of protein X5 of SARS-CoV Urbani [3]: 0.2; Binding of serum SARS-yellow to linear peptides of protein X5 of SARS-CoV Urbani [3]: 0.3; Binding of serum SARS-yellow to looped/cyclic peptides of protein X5 of SARS-CoV Urbani [3]: 0.8
